Measured values: patent US20250122188A1, “MODULATORS OF THE INTEGRATED STRESS PATHWAY” (Calico Life Sciences LLC, priority 2016, published 2025)

What follows are molecules tested on ATF4 luciferase reporter in HEK293T cells (assay: ATF4-Luc assay, HEK293T cells carrying the ATF4 luciferase reporter (in vitro model of VWMD)). Conditions: Homo sapiens, HEK-293T, 7 h, read-out: ATF4-Luc EC50.
Format: cell-based
Procedure: In order to test exemplary compounds of the invention in a cellular context, a stable VWMD cell line was first constructed. The ATF4 reporter was prepared by fusing the human full-length ATF4 5′-UTR (NCBI Accession No. BC022088.2) in front of the firefly luciferase (FLuc) coding sequence lacking the initiator methionine as described in Sidrauski et al (eLife 2013). The construct was used to produce recombinant retroviruses using standard methods and the resulting viral supernatant was used to transduce HEK293T cells, which were then subsequently selected with puromycin to generate a stable cell line.
HEK293T cells carrying the ATF4 luciferase reporter were plated on polylysine coated 384-well plates (Greiner Bio-one) at 30,000 cells per well. Cells were treated the next day with 1 μg/mL tunicamycin and 200 nM of a compound of Formula (I) for 7 hours. Luminescence was measured using One Glo (Promega) as specified by the manufacturer. Cells were maintained in DMEM with L-glutamine supplemented with 10% heat-inactivated FBS (Gibco) and Antibiotic-Antimycotic solution (Gibco).
Molecule `O=C(COc1ccc(Cl)c(F)c1)NC12CC(NC(=O)Oc3ccc(Cl)cc3)(C1)C2` [Compound 434, 4-chlorophenyl {3-[2-(4-chloro-3-fluorophenoxy)acetamido]bicyclo[1.1.1]pentan-1-yl}carbamate] has an EC50 of 250 to 500000 nM.

Same assay, conditions: Homo sapiens, HEK-293T; HEK293T ATF4 luciferase reporter cells, 1 μg/mL tunicamycin, 7 hours; read-out: ATF4-Luc EC50
`Cc1nc(F)ccc1OCC(=O)NC12CC(NC(=O)COc3ccc(Cl)c(F)c3)(C1)C2` [Compound 249, 2-(4-chloro-3-fluorophenoxy)-N-(3-{2-[(6-fluoro-2-methylpyridin-3-yl)oxy]acetamido}bicyclo[1.1.1]pentan-1-yl)acetamide] showed an EC50 of 250 to 500000 nM. `CCc1cc(C)cc(OCC(=O)NC23CCC(NC(=O)COc4ccc(Cl)c(F)c4)(CC2)C[C@@H]3O)c1` [Compound 494, 2-(4-chloro-3-fluorophenoxy)-N-{(3S)-4-[2-(3-ethyl-5-methylphenoxy)acetamido]-3-hydroxybicyclo[2.2.2]octan-1-yl}acetamide] showed an EC50 of 250 to 500000 nM. Molecule `CC(C)(C)c1ccc(OCC(=O)NC23CCC(NC(=O)COc4ccc(Cl)c(F)c4)(CC2)C[C@@H]3O)cc1` [Compound 506, 2-(4-tert-butylphenoxy)-N-{(2S)-4-[2-(4-chloro-3-fluorophenoxy)acetamido]-2-hydroxybicyclo[2.2.2]octan-1-yl}acetamide] has an EC50 of 250 to 500000 nM. `O=C(/C=C/c1ccc(C(F)(F)F)nc1)NC12CC(NC(=O)COc3ccc(Cl)c(F)c3)(C1)C2` [Compound 351, (2E)-N-{3-[2-(4-chloro-3-fluorophenoxy)acetamido]bicyclo[1.1.1]pentan-1-yl}-3-[6-(trifluoromethyl)pyridin-3-yl]prop-2-enamide] showed an EC50 of 250 to 500000 nM. `O=C(CCOc1cccc(Cl)c1)NC12CC(NC(=O)COc3ccc(Cl)c(Cl)c3)(C1)C2` [Compound 169, 3-(3-chlorophenoxy)-N-{3-[2-(3,4-dichlorophenoxy)acetamido]bicyclo-[1.1.1]pentan-1-yl}propanamide] gave an EC50 of 250 to 500000 nM. Molecule `O=C(COc1ccc(C(F)F)cc1)NC12CC(NC(=O)COc3ccc(C(F)F)cc3)(C1)C2` [Compound 389, N,N′-(bicyclo[1.1.1]pentane-1,3-diyl)bis{2-[4-(difluoromethyl)phenoxy]acetamide}] has an EC50 of 250 to 500000 nM. Molecule `COc1cc(OC)nc(OCC(=O)NC23CCC(NC(=O)COc4ccc(Cl)c(F)c4)(CC2)C[C@@H]3O)n1` [Compound 498, 2-(4-chloro-3-fluorophenoxy)-N-[(3S)-4-{2-[(4,6-dimethoxypyrimidin-2-yl)oxy]acetamido}-3-hydroxybicyclo[2.2.2]octan-1-yl]acetamide] has an EC50 of 250 to 500000 nM. `CC(O)(c1ccc(OCC(=O)NC23CC(NC(=O)COc4ccc(Cl)c(F)c4)(C2)C3)cc1)C(F)(F)F` (stereo not shown) [Compound 413, 2-(4-chloro-3-fluorophenoxy)-N-(3-{2-[4-(1,1,1-trifluoro-2-hydroxypropan-2-yl)phenoxy]acetamido}bicyclo[1.1.1]pentan-1-yl)acetamide] gave an EC50 of 250 to 500000 nM. `O=C(COc1ccc(Cl)c(F)c1)NC12CC(NC(=O)CC(=O)c3ccc(Cl)cc3)(C1)C2` [Compound 293, N-{3-[2-(4-chloro-3-fluorophenoxy)acetamido]bicyclo[1.1.1]pentan-1-yl}-3-(4-chlorophenyl)-3-oxopropanamide] showed an EC50 of 250 to 500000 nM. `O=C(COc1ccc(Cl)c(F)c1)NC12CCC(NC(=O)COc3ccnc(C(F)(F)F)c3)(CC1)[C@@H](O)C2` (single isomer, unassigned) [Compound 318] gave an EC50 of 10 to 50 nM. For `O=C(COc1ccc(Cl)c(Cl)c1)NC12CC(NC(=O)OCCCc3cccc(Cl)c3)(C1)C2` [Compound 174, 3-(3-chlorophenyl)propyl {3-[2-(3,4-dichlorophenoxy)acetamido]-bicyclo[1.1.1]pentan-1-yl}carbamate], the EC50 was 250 to 500000 nM. `O=C(COc1ccc(Cl)c(F)c1)NC12CC(NCC(=O)c3ccc(Cl)c(F)c3)(C1)C2` [Compound 291, 2-(4-chloro-3-fluorophenoxy)-N-(3-{[2-(4-chloro-3-fluorophenyl)-2-oxoethyl]amino}bicyclo[1.1.1]pentan-1-yl)acetamide] gave an EC50 of 250 to 500000 nM. `O=C(COc1ccc(Cl)c(F)c1)NC12CCC(NC(=O)COc3ccc(C(F)(F)F)nc3)(CC1)[C@H](O)C2` (single isomer, unassigned) [Compound 302] was tested, and the EC50 was less than 10 nM. In the case of `O=C(COc1ccc2c(c1)OC(F)(F)O2)NC12CCC(NC(=O)COc3ccc4c(c3)OC(F)(F)O4)(C1)C2` [Compound 391, N,N′-(bicyclo[2.1.1]hexane-1,4-diyl)bis{2-[(2,2-difluoro-2H-1,3-benzodioxol-5-yl)oxy]acetamide}], the EC50 is reported as 250 to 500000 nM. With `O=C(COc1ccc(Cl)c(F)c1)NC12CCC(NCCOc3ccc(Cl)c(Cl)c3)(CC1)CC2O` (stereo not shown) [Compound 337, 2-(4-chloro-3-fluorophenoxy)-N-(4-{[2-(3,4-dichlorophenoxy)ethyl]amino}-2-hydroxybicyclo[2.2.2]octan-1-yl)acetamide] the EC50 was less than 10 nM. `O=C(COc1ccc(Cl)c(F)c1)NC12CCC(NC(=O)COc3ccc(C(F)(F)F)nc3)(CC1)[C@@H](F)C2` [Compound 373, 2-(4-chloro-3-fluorophenoxy)-N-[(3S)-3-fluoro-4-(2-{[6-(trifluoromethyl)pyridin-3-yl]oxy}acetamido)bicyclo[2.2.2]octan-1-yl]acetamide] gave an EC50 of 50 to 250 nM. Molecule `O=C(COc1ccc(Cl)c(F)c1)NC12CCC(NC(=O)COc3ccc(F)cc3)(CC1)[C@@H](O)C2` [Compound 354, 2-(4-chloro-3-fluorophenoxy)-N-{(3S)-4-[2-(4-fluorophenoxy)acetamido]-3-hydroxybicyclo[2.2.2]octan-1-yl}acetamide] has an EC50 of less than 10 nM. In the case of `N#Cc1cc(OCC(=O)NC23CC(NC(=O)COc4ccc(Cl)c(F)c4)(C2)C3)ccn1` [Compound 277, 2-(4-chloro-3-fluorophenoxy)-N-(3-{2-[(2-cyanopyridin-4-yl)oxy]acetamido}bicyclo[1.1.1]pentan-1-yl)acetamide], the EC50 is reported as 250 to 500000 nM. `COc1ccc(/C=C/C(=O)NC23CC(NC(=O)COc4ccc(Cl)c(F)c4)(C2)C3)cc1` [Compound 347, (2E)-N-{3-[2-(4-chloro-3-fluorophenoxy)acetamido]bicyclo[1.1.1]pentan-1-yl}-3-(4-methoxyphenyl)prop-2-enamide] gave an EC50 of 250 to 500000 nM. `Cc1cc(Cl)ncc1OCC(=O)NC12CC(NC(=O)COc3ccc(Cl)c(F)c3)(C1)C2` [Compound 243, 2-(4-chloro-3-fluorophenoxy)-N-(3-{2-[(6-chloro-4-methylpyridin-3-yl)oxy]acetamido}bicyclo[1.1.1]pentan-1-yl)acetamide] was tested, and the EC50 was 250 to 500000 nM. `O=C(/C=C/c1ccc(OC(F)(F)F)cn1)NC12CC(NC(=O)COc3ccc(Cl)c(F)c3)(C1)C2` [Compound 376, (2E)-N-{3-[2-(4-chloro-3-fluorophenoxy)acetamido]bicyclo[1.1.1]pentan-1-yl}-3-[5-(trifluoromethoxy)pyridin-2-yl]prop-2-enamide] showed an EC50 of 250 to 500000 nM. For `N#Cc1ccc(COCC(=O)NC23CC(NC(=O)COc4ccc(Cl)c(F)c4)(C2)C3)cc1` [Compound 139, 2-(4-chloro-3-fluorophenoxy)-N-(3-{2-[(4-cyanophenyl)methoxy]acetamido}-bicyclo[1.1.1]pentan-1-yl)acetamide], the EC50 was 250 to 500000 nM. Work on `O=C(COc1ccc(Cl)c(F)c1)NC12CC(NC(=O)Cc3ccc(C(F)(F)F)nc3)(C1)C2` [Compound 342, 2-(4-chloro-3-fluorophenoxy)-N-(3-{2-[6-(trifluoromethyl)pyridin-3-yl]acetamido}bicyclo[1.1.1]pentan-1-yl)acetamide] yielded an EC50 of 250 to 500000 nM. Molecule `Cc1ccc(COCC(=O)NC23CC(NC(=O)COc4ccc(Cl)c(F)c4)(C2)C3)cc1` [Compound 144, 2-(4-chloro-3-fluorophenoxy)-N-(3-{2-[(4-methylphenyl)methoxy]acetamido}-bicyclo[1.1.1]pentan-1-yl)acetamide] has an EC50 of 250 to 500000 nM. In the case of `O=C(COc1ccc(Cl)c(F)c1)NC12CCC(NC(=O)COc3ccc(C(F)(F)F)nc3)(CC1)[C@@H](F)C2` (single isomer, unassigned) [Compound 372], the EC50 is reported as 50 to 250 nM. `Cc1ccc(CCOCC(=O)NC23CC(NC(=O)COc4ccc(Cl)c(Cl)c4)(C2)C3)cc1` [Compound 154, 2-(3,4-dichlorophenoxy)-N-(3-{2-[2-(4-methylphenyl)ethoxy]acetamido}-bicyclo[1.1.1]pentan-1-yl)acetamide] showed an EC50 of 250 to 500000 nM. `O=C(CCn1ncc(Cl)cc1=O)NC12CC(NC(=O)COc3ccc(Cl)c(F)c3)(C1)C2` [Compound 104, N-{3-[2-(4-chloro-3-fluorophenoxy)acetamido]bicyclo[1.1.1]pentan-1-yl}-3-(4-chloro-6-oxopyridazin-1(6H)-yl)propanamide] gave an EC50 of 250 to 500000 nM. `NCc1ccc(OCC(=O)NC23CC(NC(=O)COc4ccc(Cl)c(F)c4)(C2)C3)cn1` [Compound 259, 2-{[6-(aminomethyl)pyridin-3-yl]oxy}-N-{3-[2-(4-chloro-3-fluorophenoxy)acetamido]bicyclo[1.1.1]pentan-1-yl}acetamide] gave an EC50 of 250 to 500000 nM. For `O=C(COc1ccc(Cl)c(F)c1)NC12CC(NC(=O)COc3cnc4cc[nH]c4c3)(C1)C2` [Compound 254, 2-(4-chloro-3-fluorophenoxy)-N-(3-{2-[(1H-pyrrolo[3,2-b]pyridin-6-yl)oxy]acetamido}bicyclo[1.1.1]pentan-1-yl)acetamide], the EC50 was 250 to 500000 nM. Molecule `O=C(COCCc1ccc(Cl)cc1)NC12CC(NC(=O)COc3ccc(Cl)c(F)c3)(C1)C2` [Compound 135, 2-(4-chloro-3-fluorophenoxy)-N-(3-{2-[2-(4-chlorophenyl)ethoxy]acetamido}-bicyclo[1.1.1]pentan-1-yl)acetamide] has an EC50 of 250 to 500000 nM.
